Source: patent US12667626B2, “Compositions and methods relating to erythrocytes with adhered particles” (PRESIDENT AND FELLOWS OF HARVARD COLLEGE, priority 2019, dated 2026)

Assays:
[1] = test system: B16F10-Luc melanoma lung metastasis; assay: Efficacy in early-stage B16F10-Luc lung metastasis model; type: in vivo, mice
Protocol: Efficacy studies on in vivo experimental lung metastasis model. Experimental lung metastasis model was established by intravenous injection of 1×10^5 B16F10-Luc cells in to the tail vein of female C57BL/6 mice. Efficacy for the treatment groups was evaluated in an early stage and late stage metastatic models. Mice were randomized based on the bioluminescence intensity in the lungs one day before the first injection of therapies. A control (Saline) group and three treatment groups (DOX-NPs, RBC-NPs, free DOX) at a dose of 5.2 mg/kg were evaluated for their efficacy (n=7 for all groups, unless otherwise specified).
For the early-stage metastatic model, treatments were given starting the day after the inoculation. Four injections were given over six days, i.e. day 1, 3, 5 and 7 after inoculation. On days 6, 8, 10, 12, 18, 23, 31 after inoculation, the mice were imaged using in vivo imaging (Perkin Elmer IVIS Spectrum™, MA, USA). Briefly, mice were injected intraperitoneally with 150 μL of 30 mg/mL Xenolight™-D-luciferin in saline. […] The average radiance (bioluminescence intensity) was evaluated using the software Living System®. The animals were further monitored for their survival.

[2] = Chemokine gradient assay (CXCL10 in lung and blood); type: in vivo, mice; conditions: 5× higher dose, free form
Protocol: The chemokine gradient assay was conducted on the early-stage lung metastasis model as follows. To evaluate chemokine gradient restoration capability of the therapy, early-stage spontaneous lung metastasis model was established as described in the previous context. One saline and three treatment groups (5× free CXCL10 chemokine, ImmunoBait with anti-ICAM-1, and erythrocyte hitchhiked ImmunoBait with anti-ICAM-1) were included into the study. Treatments were given starting one week after surgery. Two injection sets were given on day 7 and day 10 after surgery. (n=4-5 for each time point for each group). Mice were sacrificed at 20 mins and 6 h after the second injection, blood was collected by cardiac puncture and lungs were excised. Chemokine content in lungs and blood were quantified as described above.
The chemokine gradient assay was conducted on the early-stage lung metastasis model as follows. To evaluate chemokine gradient restoration capability of the therapy, early-stage spontaneous lung metastasis model was established as described in the previous context. One saline and three treatment groups (5× free CXCL10 chemokine containing 12.5 μg CXCL10, ImmunoBait with anti-ICAM-1 containing 2.5 μg CXCL10, and erythrocyte hitchhiked ImmunoBait with anti-ICAM-1 containing 2.5 μg CXCL10) were included into the study. […] Chemokine content in lungs and blood were quantified as described above.

Compound | lung metastasis burden inhibited ([1]; day 16, early-stage model) [%] | median survival time ([1]; early-stage model, control 29 days) [days] | body weight change ([1]; treatment period, 5.2 mg/kg) | chemokine gradient established [2]
COc1cccc2c1C(=O)c1c(O)c3c(c(O)c1C2=O)C[C@@](O)(C(=O)CO)C[C@@H]3O[C@H]1C[C@H](N)[C@H](O)[C@H](C)O1 [free drug, doxorubicin] | 94.2 | 32 | sharp decline in the body weight | 
CXCL10 [free chemokine] |  |  |  | weak chemokine gradient
